PubChem BioAssay AID1195 (EPA DSSTox, 2008)

Test system: human maximum recommended daily dose, FDA database
Test: DSSTox (FDAMDD) FDA Maximum (Recommended) Daily Dose Database
Conditions: stronger effect = lower value
Summary of the method: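 MRDD values come from clinical trials with daily oral dosing, usually for 3–12 months, for the average adult, in mg/day converted to mg/kg-bw/day assuming 60 kg. Antineoplastic mg/m2 doses are divided by 37. Activity score maps log10(1/MRDD mmol) onto 1–100.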

[1] = TherapeuticCategory: antibacterial
[2] = TherapeuticCategory: antihypertensive

Compound: CC(=O)OCCN1CCN(CCCN2c3ccccc3Sc3ccc(Cl)cc32)CC1
- maximum recommended daily dose (mmol/kg-bw/day) (TherapeuticCategory: antipsychotic): 0.00336

Compound: CCCCCCC(=O)OCCN1CCN(CCCN2c3ccccc3Sc3ccc(C(F)(F)F)cc32)CC1
- maximum recommended daily dose (mmol/kg-bw/day) (TherapeuticCategory: antispsychotic): 0.000606

Compound: CN(C)C(=O)Oc1cccc([N+](C)(C)C)c1
- maximum recommended daily dose (mmol/kg-bw/day) (TherapeuticCategory: cholinergic): 0.028

Compound: CN[C@@H]1[C@@H](O)[C@@H](O[C@@H]2[C@@H](O)[C@H](OC3OC(CN)=CCC3N)[C@@H](N)C[C@H]2N)OC[C@]1(C)O (stereo partly drawn)
- maximum recommended daily dose (mmol/kg-bw/day) [1]: 0.0067

Compound: Cc1cc(C)cc(OCC2CNC(=O)O2)c1 (stereo not drawn)
- maximum recommended daily dose (mmol/kg-bw/day) (TherapeuticCategory: skeletal muscle relaxant): 0.484

Compound: CC(C)(C)NC(=O)[C@H]1CC[C@H]2[C@@H]3CC[C@H]4NC(=O)C=C[C@]4(C)[C@H]3CC[C@]12C
- maximum recommended daily dose (mmol/kg-bw/day) (TherapeuticCategory: prostatic hypertrophy treatment): 0.000224

Compound: Cc1cc(-c2ccc(N=Nc3ccc4c(S(=O)(=O)O)cc(S(=O)(=O)O)c(N)c4c3O)c(C)c2)ccc1N=Nc1ccc2c(S(=O)(=O)O)cc(S(=O)(=O)O)c(N)c2c1O
- maximum recommended daily dose (mmol/kg-bw/day) (TherapeuticCategory: diagnostic aid): 0.000347

Compound: CCCCc1ncc(/C=C(\Cc2cccs2)C(=O)O)n1Cc1ccc(C(=O)O)cc1
- maximum recommended daily dose (mmol/kg-bw/day) [2]: 0.0313

Compound: Clc1ccc2c(c1)C(c1ccccc1)=NCc1nncn1-2
- maximum recommended daily dose (mmol/kg-bw/day) (TherapeuticCategory: sedative, hypnotic): 0.000113

Compound: CN(C)CCCN1c2ccccc2Sc2ccc(Cl)cc21
- maximum recommended daily dose (mmol/kg-bw/day) (TherapeuticCategory: antiemetic, antipsychotic): 0.0524

Compound: C#CCN(C)Cc1ccccc1
- maximum recommended daily dose (mmol/kg-bw/day) [2]: 0.0209

Compound: CC(C)(C)NCC(O)COc1cccc2c1C[C@H](O)[C@H](O)C2 (stereo partly drawn)
- maximum recommended daily dose (mmol/kg-bw/day) (TherapeuticCategory: antihypertensive, antianginal): 0.0346

Compound: COC(=O)CCc1ccc(OCC(O)CNC(C)C)cc1 (stereo not drawn)
- maximum recommended daily dose (mmol/kg-bw/day) (TherapeuticCategory: antiarrhythmic): 0.000677

Compound: Cc1ccc(O)c([C@H](CCN(C(C)C)C(C)C)c2ccccc2)c1
- maximum recommended daily dose (mmol/kg-bw/day) (TherapeuticCategory: cholinergic (acetyl-choline) receptor blockers): 0.0246

Compound: CCCSc1ccc2nc(NC(=O)OC)[nH]c2c1
- maximum recommended daily dose (mmol/kg-bw/day) (TherapeuticCategory: anthelmintic): 0.0501

Compound: CC(=O)[C@@]12O[C@](C)(c3ccccc3)O[C@@H]1C[C@H]1[C@@H]3CCC4=CC(=O)CC[C@]4(C)[C@H]3CC[C@@]12C
- maximum recommended daily dose (mmol/kg-bw/day) (TherapeuticCategory: acne treatment): 0.00557

Compound: CN1CCC(=C2c3ccccc3CCc3sccc32)CC1
- maximum recommended daily dose (mmol/kg-bw/day) (TherapeuticCategory: anabolic, antidepressant, serotonin inhibitor): 0.000169

Compound: CC(C)(N)Cc1ccc(Cl)cc1
- maximum recommended daily dose (mmol/kg-bw/day) (TherapeuticCategory: anorexic): 0.00588

Compound: CCOC(=O)[C@H](CCc1ccccc1)N[C@@H](C)C(=O)N1[C@H](C(=O)O)C[C@H]2CCCC[C@@H]21
- maximum recommended daily dose (mmol/kg-bw/day) [2]: 0.00124

Compound: CNCCC(Oc1ccc(C(F)(F)F)cc1)c1ccccc1 (stereo not drawn)
- maximum recommended daily dose (mmol/kg-bw/day) (TherapeuticCategory: antidepressant): 0.0043

Compound: CO/N=C(/C(=O)N[C@@H]1C(=O)N2C(C(=O)O)=C(COC(C)=O)CS[C@H]12)c1csc(N)n1
- maximum recommended daily dose (mmol/kg-bw/day) [1]: 0.439

Compound: CC(=O)Nc1ccccc1
- maximum recommended daily dose (mmol/kg-bw/day) (TherapeuticCategory: antipyretic, analgesic): 0.037

Compound: NS(=O)(=O)c1cc2c(cc1Cl)NCNS2(=O)=O
- maximum recommended daily dose (mmol/kg-bw/day) (TherapeuticCategory: diuretic): 0.0112

Compound: O=C(Cn1c(=O)sc2ccc(Cl)cc21)N1CCN(CCO)CC1
- maximum recommended daily dose (mmol/kg-bw/day) (TherapeuticCategory: antiasthmatic, anti inflammatry): 0.0141

Compound: NC(=S)N=Nc1ccc(NN=C(N)N)cc1
- maximum recommended daily dose (mmol/kg-bw/day) [1]: 0.000704

Compound: COc1ccccc1O
- maximum recommended daily dose (mmol/kg-bw/day) (TherapeuticCategory: expectorant): 0.0902

Compound: CCCC(C)C1(CC)C(=O)NC(=S)NC1=O (stereo not drawn)
- maximum recommended daily dose (mmol/kg-bw/day) (TherapeuticCategory: short acting anesthetic): 0.0172

Compound: NCCCC(N)(C(=O)O)C(F)F (stereo not drawn)
- maximum recommended daily dose (mmol/kg-bw/day) (TherapeuticCategory: antineoplastic, antineumocystis, antiprotozoal): 2.2

Compound: CCC(OC(C)=O)C(CC(C)N(C)C)(c1ccccc1)c1ccccc1 (stereo not drawn)
- maximum recommended daily dose (mmol/kg-bw/day) (TherapeuticCategory: none): 0.00659

Compound: OC[C@H]1O[C@H](O[C@H]2[C@H](O)[C@@H](O)[C@H](O)O[C@@H]2CO)[C@H](O)[C@@H](O)[C@@H]1O
- maximum recommended daily dose (mmol/kg-bw/day) (TherapeuticCategory: none): 0.292

Compound: O=C(O)C(O)c1ccccc1 (stereo not drawn)
- maximum recommended daily dose (mmol/kg-bw/day) (TherapeuticCategory: urinary antiseptic): 0.438

Compound: CS(=O)(=O)c1ccc(C2=C(c3ccccc3)C(=O)OC2)cc1
- maximum recommended daily dose (mmol/kg-bw/day) (TherapeuticCategory: analgesic, anti inflammatory): 0.00265

Compound: CCCCC1=NC2(CCCC2)C(=O)N1Cc1ccc(-c2ccccc2-c2nn[nH]n2)cc1
- maximum recommended daily dose (mmol/kg-bw/day) [2]: 0.0117

Compound: O=c1[nH]c(=O)n(C2CCCO2)cc1F (stereo not drawn) (tested in a mixture with another compound)
- maximum recommended daily dose (mmol/kg-bw/day) (TherapeuticCategory: antineoplastic): 0.0641

Compound: COc1ccc(C[C@@H](C)NC[C@H](O)c2ccc(O)c(NC=O)c2)cc1
- maximum recommended daily dose (mmol/kg-bw/day) (TherapeuticCategory: antiasthmatic): 0.00775

Compound: CCOC(=O)[C@]1(c2ccccc2)CCC=C[C@H]1N(C)C
- maximum recommended daily dose (mmol/kg-bw/day) (TherapeuticCategory: narcotic analgesic): 0.0122

Compound: CCN(CCO)CCCC(C)Nc1ccnc2cc(Cl)ccc12 (stereo not drawn)
- maximum recommended daily dose (mmol/kg-bw/day) (TherapeuticCategory: antimalarial, antirheumatic, lupus erythematosus suppressant): 0.0298

Compound: O=C(O)CN(CCN(CC(=O)O)CC(=O)O)CCN(CC(=O)O)CC(=O)O
- maximum recommended daily dose (mmol/kg-bw/day) (TherapeuticCategory: chelating agent): 0.0425
